Source: ChEMBL document CHEMBL1123875, “Plant antitumor agents. 25. Total synthesis and antileukemic activity of ring A substituted camptothecin analogues. Structure-activity correlations” (J Med Chem, 1987)
≈ marks a conversion by molar mass, not a printed value. Calls of active or inactive are those of the source. The rule behind the calls is not given here.

Tests used:
[1] = system: Mus musculus; experiment: (§1) In vivo antileukemic activity against L-1210 mouse leukemia cells expressed as % T/C (median survival time of treated/control animals) x 100; IA means inactive; type: functional, organism-based
[2] = In vitro cytotoxic activity against KB cell culture.; type: functional; conditions: Homo sapiens, read-out: ED50 (the source's name)
[3] = system: L1210; experiment: Toxic dose against L1210 mouse leukemia cells was determined; type: toxicity
[4] = system: Mus musculus; experiment: In vivo antileukemic activity against L-1210 mouse leukemia cells expressed as % T/C (median survival time of treated/control animals) x 100; type: functional
[5] = system: Mus musculus; experiment: In vivo antileukemic activity against L-1210 mouse leukemia cells expressed as […] (log10 of initial tumor cell population minus log10 of tumor cell population at end of treatment); type: functional
[6] = system: Mus musculus; experiment: In vivo antileukemic activity against L-1210 mouse leukemia cells and number of animals cured out of 6; type: functional
[7] = system: L1210; experiment: Active dose range for antileukemic activity against L1210 mouse leukemia cells was reported; type: functional
[8] = system: L1210; experiment: Active dose range for antileukemic activity against L1210 mouse leukemia cells was reported; dose range may vary from 0.25 to 5.0; type: functional
[9] = system: Mus musculus; experiment: In vivo antileukemic activity against L-1210 mouse leukemia cells expressed as % T/C (median survival time of treated/control animals) x 100 after 2.5 mg/kg administration of dose; type: functional
[10] = system: Mus musculus; experiment: In vivo antileukemic activity against L-1210 mouse leukemia cells expressed as KE (log10 of initial tumor cell population minus log10 of tumor cell population at end of treatment); type: functional
[11] = system: Mus musculus; experiment: In vivo antileukemic activity against L-1210 mouse leukemia cells given as number of animals cured out of 6; type: functional
[12] = system: L1210; experiment: Active dose range for antileukemic activity against L1210 mouse leukemia cells was reported; dose range may vary from 20 to 80; type: functional
[13] = system: Mus musculus; experiment: In vivo antileukemic activity against L-1210 mouse leukemia cells expressed as % T/C (median survival time of treated/control animals) x 100 after 80 mg/kg administration of dose; type: functional
[14] = system: L1210; experiment: Active dose range for antileukemic activity against L1210 mouse leukemia cells was reported; dose range may vary from 10 to 80; type: functional
[15] = system: Mus musculus; experiment: In vivo antileukemic activity against L-1210 mouse leukemia cells expressed as % T/C (median survival time of treated/control animals) x 100 after 10 mg/kg administration of dose; type: functional
[16] = system: L1210; experiment: Active dose range for antileukemic activity against L1210 mouse leukemia cells was reported; dose range may vary from 2 to 15.5; type: functional
[17] = system: Mus musculus; experiment: In vivo antileukemic activity against L-1210 mouse leukemia cells expressed as % T/C (median survival time of treated/control animals) x 100 after 3.75 mg/kg administration of dose; type: functional
[18] = system: Mus musculus; experiment: In vivo antileukemic activity against L-1210 mouse leukemia cells expressed as % T/C (median survival time of treated/control animals) x 100 after 40 mg/kg administration of dose; type: functional
[19] = system: L1210; experiment: Active dose range for antileukemic activity against L1210 mouse leukemia cells was reported; dose range may vary from 10 to 20; type: functional
[20] = system: L1210; experiment: Active dose range for antileukemic activity against L1210 mouse leukemia cells was reported; dose range may vary from 7.5 to 15.5; type: functional
[21] = system: Mus musculus; experiment: In vivo antileukemic activity against L-1210 mouse leukemia cells expressed as % T/C (median survival time of treated/control animals) x 100 after 15.5 mg/kg administration of dose; type: functional
[22] = system: KB; experiment: In vitro cytotoxic activity against KB cell culture, expressed as ED50 (concentration resulting in a 50% cell number reduction) was determined; IA means inactive; type: functional, cell-based; conditions: Homo sapiens
[23] = system: Mus musculus; experiment: as §1; type: functional, organism-based; remark: listed apart in the source
[24] = system: L1210; experiment: In vivo antileukemic activity against L-1210 mouse leukemia cells expressed as % T/C (median survival time of treated/control animals) x 100; In active; type: functional, organism-based
[25] = system: L1210; experiment: Active dose range for antileukemic activity against L1210 mouse leukemia cells was reported; dose range may vary from 7.5 to 60; type: functional
[26] = system: Mus musculus; experiment: In vivo antileukemic activity against L-1210 mouse leukemia cells expressed as % T/C (median survival time of treated/control animals) x 100 after 60 mg/kg administration of dose; type: functional
[27] = system: L1210; experiment: Active dose range for antileukemic activity against L1210 mouse leukemia cells was reported 2 to 4; type: functional
[28] = system: Mus musculus; experiment: In vivo antileukemic activity against L-1210 mouse leukemia cells expressed as % T/C (median survival time of treated/control animals) x 100 after 2 mg/kg administration of dose; type: functional
[29] = system: KB; experiment: In vitro cytotoxic activity against KB cell culture, expressed as ED50 (concentration resulting in a 50% cell number reduction) was determined; In active; type: functional, cell-based; conditions: Homo sapiens

CCC1(O)C(=O)OCc2c1cc1n(c2=O)Cc2cc3ccc(CN)cc3nc2-1 (centres undefined) [listing 1 of 2 here]
T/C [1]: inactive

Br.CCC1(O)C(=O)OCc2c1cc1n(c2=O)Cc2cc3cc(O)c(O)cc3nc2-1 (centres undefined)
EC50 [2]: 3 µg/mL | Toxic dose [3]: > 80 mg/kg | T/C [4]: 173% | T/C [5]: 2.62% | No. of cures [6]: 0 | Active dose range [7]: 10 mg/kg

CC[C@@]1(O)C(=O)OCc2c1cc1n(c2=O)Cc2cc3c(N)cccc3nc2-1 [9-AMINOCAMPTOTHECIN]
EC50 [2]: 0.02 µg/mL (≈ 0.055 µM) | Toxic dose [3]: 10 mg/kg | Active dose range [8]: 5 mg/kg | T/C [9]: 361% | KE [10]: ≥ 5.97 log10 units | No. of cures [11]: 4

CCC1(O)C(=O)OCc2c1cc1n(c2=O)Cc2cc3ccc([N+](=O)[O-])cc3nc2-1 (centres undefined)
EC50 [2]: 3 µg/mL (≈ 7.63 µM) | Toxic dose [3]: > 80 mg/kg | Active dose range [12]: 80 mg/kg | KE [10]: 0.29 log10 units | T/C [13]: 147% | No. of cures [11]: 0

CCC1(O)C(=O)OCc2c1cc1n(c2=O)Cc2cc3cc(C)ccc3nc2-1 (centres undefined)
EC50 [2]: 0.08 µg/mL (≈ 0.221 µM) | Toxic dose [3]: > 80 mg/kg | Active dose range [14]: 80 mg/kg | T/C [15]: 207% | KE [10]: 4.66 log10 units | No. of cures [11]: 0

CCC1(O)C(=O)OCc2c1cc1n(c2=O)Cc2cc3cc(N)ccc3nc2-1 (centres undefined)
EC50 [2]: 0.03 µg/mL (≈ 0.0826 µM) | Toxic dose [3]: 32 mg/kg | Active dose range [16]: 15.5 mg/kg | T/C [17]: 365% | KE [10]: ≥ 5.97 log10 units | No. of cures [11]: 3

CCC1(O)C(=O)OCc2c1cc1n(c2=O)Cc2cc3ccc(CN)cc3nc2-1.Cl (centres undefined)
EC50 [2]: 4 µg/mL

CCC1(O)C(=O)OCc2c1cc1n(c2=O)Cc2cc3ccc(C)cc3nc2-1 (centres undefined)
EC50 [2]: 0.9 µg/mL (≈ 2.48 µM) | Toxic dose [3]: > 80 mg/kg | Active dose range [12]: 80 mg/kg | KE [10]: -0.68 log10 units | T/C [18]: 136% | No. of cures [11]: 0

CCC1(O)C(=O)OCc2c1cc1n(c2=O)Cc2cc3cc(OC)c(OC)cc3nc2-1 (centres undefined)
EC50 [2]: 9 µg/mL (≈ 22 µM) | T/C [1]: inactive

CCC1(O)C(=O)OCc2c1cc1n(c2=O)Cc2cc3cc(Cl)ccc3nc2-1 (centres undefined)
EC50 [2]: 0.01 µg/mL (≈ 0.0261 µM) | Toxic dose [3]: 40 mg/kg | Active dose range [19]: 20 mg/kg | T/C [15]: 280% | KE [10]: ≥ 5.97 log10 units | No. of cures [11]: 2

CCC1(O)C(=O)OCc2c1cc1n(c2=O)Cc2cc3cc([N+](=O)[O-])ccc3nc2-1 (centres undefined)
EC50 [2]: 0.3 µg/mL (≈ 0.763 µM) | Active dose range [20]: 15.5 mg/kg | Toxic dose [3]: 31 mg/kg | T/C [21]: 219% | KE [10]: ≥ 5.86 log10 units | No. of cures [11]: 1

CCC1(O)C(=O)OCc2c1cc1n(c2=O)Cc2cc3ccc(C(=O)[O-])cc3nc2-1.[Na+] (centres undefined)
EC50 [2]: 0.3 µg/mL | ED50 [22]: inactive | T/C [1]: inactive | T/C [23]: inactive

CCC1(O)C(=O)OCc2c1cc1n(c2=O)Cc2cc3ccc(CN)cc3nc2-1 (centres undefined) [listing 2 of 2 here]
EC50 [2]: 2 µg/mL (≈ 5.3 µM)

CCC1(O)C(=O)OCc2c1cc1n(c2=O)Cc2cc3ccc(C(=O)OC)cc3nc2-1 (centres undefined)
EC50 [2]: 5 µg/mL (≈ 12.3 µM) | T/C [1]: inactive

CCC1(O)C(=O)OCc2c1cc1n(c2=O)Cc2cc3ccc(C=O)cc3nc2-1 (centres undefined)
EC50 [2]: 5 µg/mL (≈ 13.3 µM) | T/C [24]: inactive

CCC1(O)C(=O)OCc2c1cc1n(c2=O)Cc2cc3ccc(O)cc3nc2-1 (centres undefined)
EC50 [2]: 0.02 µg/mL (≈ 0.0549 µM) | Active dose range [25]: 60 mg/kg | Toxic dose [3]: > 60 mg/kg | KE [10]: ≥ 5.68 log10 units | T/C [26]: 357% | No. of cures [11]: 3

CCC1(O)C(=O)OCc2c1cc1n(c2=O)Cc2cc3ccc(N)cc3nc2-1 (centres undefined)
EC50 [2]: 0.02 µg/mL (≈ 0.055 µM) | Toxic dose [3]: > 80 mg/kg | Active dose range [14]: 80 mg/kg | KE [10]: 0.29 log10 units | T/C [18]: 147% | No. of cures [11]: 0

CCC1(O)C(=O)OCc2c1cc1n(c2=O)Cc2cc3cc(O)c(O)cc3nc2-1 (centres undefined)
EC50 [2]: 1 µg/mL (≈ 2.63 µM) | Toxic dose [3]: > 80 mg/kg | T/C [4]: 153% | T/C [5]: 0.87% | No. of cures [6]: 1 | Active dose range [7]: 10 mg/kg

CCC1(O)C(=O)OCc2c1cc1n(c2=O)Cc2cc3ccc(C#N)cc3nc2-1 (centres undefined)
EC50 [2]: 0.3 µg/mL (≈ 0.803 µM) | Toxic dose [3]: 20 mg/kg | Active dose range [19]: <=20 mg kg-1 | T/C [15]: 365% | KE [10]: ≥ 5.79 log10 units | No. of cures [11]: 3

CCC1(O)C(=O)OCc2c1cc1n(c2=O)Cc2cc3ccc(N(C)C)cc3nc2-1 (centres undefined)
ED50 [22]: inactive | T/C [1]: inactive

CCC1(O)C(=O)OCc2c1cc1n(c2=O)Cc2cc3ccc(C(F)(F)F)cc3nc2-1 (centres undefined)
EC50 [2]: 0.9 µg/mL (≈ 2.16 µM) | T/C [1]: inactive

CCC1(O)C(=O)OCc2c1cc1n(c2=O)Cc2cc3cc4c(cc3nc2-1)OCO4 (centres undefined)
EC50 [2]: 0.007 µg/mL (≈ 0.0178 µM) | Toxic dose [3]: > 8 mg/kg | Active dose range [27]: 4 mg/kg | T/C [28]: 325% | KE [10]: ≥ 5.97 log10 units | No. of cures [11]: 2

CCC1(O)C(=O)OCc2c1cc1n(c2=O)Cc2cc3ccc(/C=N\N=C(N)N)cc3nc2-1 (racemic)
T/C [24]: inactive | ED50 [29]: inactive

CCC1(O)C(=O)OCc2c1cc1n(c2=O)Cc2cc3ccc(CO)cc3nc2-1 (centres undefined)
EC50 [2]: 0.3 µg/mL (≈ 0.793 µM) | T/C [1]: inactive
